Reference: ChEMBL document CHEMBL3507680, “University of Dundee, Gates Library screen for HepG2 cell viability”

assay: Human HepG2 cell viability assay in 384 well format; type: toxicity, cell-based; set-up: dose 125 nL, time 70.5 hour; cytotoxicity at 70.5 h: concentration not given beside the values; settings: HepG2 cells, read-out: Inhibition

Row | Compound | cytotoxicity at 70.5 h [%]
1 | O=C(NCc1nncn1C1CC1)c1ccccc1OCC1CC1 | -5.93
2 | NCC(CO)Cc1ccc(C(F)(F)F)cc1 (stereo unspecified) | 4.66
3 | COC(=O)c1ccc(N(C(=O)c2cc(Cl)ccn2)C(C)C)c(C)c1 | -2.71
4 | Cc1cccc(NCCOc2cccc(C#N)c2)c1C(N)=O | 16.4
5 | CC(CO)NC(=O)Nc1ccc(COC2CCCC2)cc1 (stereo unspecified) | -2.03
6 | Cc1nn(C)c(C)c1OCC(=O)NCC(O)Cc1ccccc1 (stereo unspecified) | 1.56
7 | Cc1nn(C)c(C)c1OCC(=O)NCC(O)c1ccsc1 (stereo unspecified) | 0.375
8 | Cc1nn(C)c(C)c1OCC(=O)NCc1cccc(CO)c1 | 2.69
9 | O=C(CCCNCc1ccc(Cl)c2cccnc12)NC1CC1 | -1.79
10 | CC(C)N(CCSc1ncnc2[nH]ncc12)C(C)C | -1.52
11 | Cc1nn(C)c(C)c1OCC(=O)NCC(O)c1ccco1 (stereo unspecified) | 16
12 | Cc1ccc(N2CCCC(NCCS(C)(=O)=O)C2)nn1 (stereo unspecified) | -1.77
13 | CC(C)=CCNC1CCCN(c2ccc(C)nn2)C1 (stereo unspecified) | -1.28
14 | N#Cc1cc(CSCCN2CCOCC2)ccc1F | -13.8
15 | COCCn1cc(C(=O)N2CCCC2c2noc(C)n2)ccc1=O (stereo unspecified) | 40.8
16 | Cc1nc(C)n(CC2CCCCN2CCCS(C)(=O)=O)n1 (stereo unspecified) | 9.04
17 | Cc1nc(C)n(CC2CCCCN2CCCO)n1 (stereo unspecified) | 9.77
18 | COCCn1cc(C(=O)N2CCCC2c2ccc(F)cc2)ccc1=O (stereo unspecified) | -1.67
19 | COCCn1cc(C(=O)N2CCCC2c2ccccc2C)ccc1=O (stereo unspecified) | -7.56
20 | c1ccc(-c2nc(CN3CCOC(Cn4cccn4)C3)cs2)cc1 (stereo unspecified) | -2.87
21 | Cc1cc(Br)oc1C(=O)N1CCN(CC(N)=O)CC1 | -1.55
22 | COc1cc(C)nc(N2CCN(C(=O)CCc3ccco3)CC2)n1 | -2.64
23 | NC(=O)CCn1ccc(NC(=O)c2ccc(OCC3CC3)cc2)n1 | -3.84
24 | Cc1ccc(C(=O)Nc2ccn(CCC(N)=O)n2)cc1 | -3.18
25 | CN1CCC(N(Cc2ccccc2F)C(=O)NCc2ccncc2)CC1 | 30.5

Row | Compound | cytotoxicity at 70.5 h [%]
26 | CCC(=O)N1CCN(C(=O)Nc2cccc(N3CCOCC3)c2)CC1 | 2.85
27 | CCOC(C)c1nc(CN2CCN(Cc3cccnc3)CC2)cs1 (stereo unspecified) | -4.18
28 | O=C(NCc1ccccc1CN1CCC(O)CC1)Nc1ccccn1 | -3.22
29 | c1cc(C2CCN(Cc3nc(-c4ccsc4)no3)CC2)[nH]n1 | -3.49
30 | O=C(CN1CCCCC1Cn1cccn1)NC1CCOCC1 (stereo unspecified) | -6.42
31 | Cn1cc(-c2nc(CN3CCOC(Cn4cccn4)C3)cs2)cn1 (stereo unspecified) | -5.18
32 | CC(C)N(C)S(=O)(=O)N1CCCC1CC(=O)c1cccs1 (stereo unspecified) | -0.315
33 | CCOc1ccccc1NC(C)C(=O)N(C)Cc1cccc(F)c1 (stereo unspecified) | 6.19
34 | CCC(CNC(=O)c1ccccn1)N1CCc2ccccc2C1 (stereo unspecified) | 10.5
35 | O=C(NCC1(N2CCOCC2)CCSC1)Nc1ccncc1 (stereo unspecified) | -6.91
36 | CN(Cc1ccco1)C(=O)NCc1nnc2n1CCC2 | -8.06
37 | Cc1cc(C(=O)CN2C(=O)c3ccccc3CS2(=O)=O)c(C)[nH]1 | -6.26
38 | Cc1ccc(NC(C)C(=O)N(C)Cc2cccc(F)c2)cc1C(N)=O (stereo unspecified) | -4.3
39 | CCOCCC(=O)NC1(c2cccc(Br)c2)CC1 | -3.83
40 | CN(Cc1ccco1)Cc1ccccc1CNC(=O)c1csnn1 | -1.62
41 | CN(Cc1ccco1)Cc1ccccc1CNC(=O)c1cnccn1 | -6.66
42 | N#Cc1cc(NC(=O)c2ccncc2)ccc1N1CCC(O)CC1 | -3.68
43 | C=C(C)CN1CCC(NC(=O)NCCc2ccccc2OC)CC1 | -7.86
44 | CC(=O)c1cccc(OCCCC(=O)N(C)CCC(F)(F)F)c1 | -4.24
45 | CN(Cc1ccco1)Cc1ccccc1CNC(=O)c1c[nH]nn1 | -1.03
46 | COc1ccc(F)cc1C(C)NC(=O)Nc1nncs1 (stereo unspecified) | 4.1
47 | COCc1ccccc1NC(=O)NC(C)c1ccc(C)o1 (stereo unspecified) | -3.14
48 | CS(=O)(=O)NCCNC(=O)c1cnc(-c2ccccc2)nc1 | -4.82
49 | N#Cc1ccc(CNC(=O)NC2CCN(c3ncccn3)CC2)cc1 | -7.8
50 | Cc1cc(C(=O)Nc2cccn(Cc3ccccc3)c2=O)no1 | 1.5

Row | Compound | cytotoxicity at 70.5 h [%]
51 | O=C(NCCC1CCN(CC(F)(F)F)CC1)C1CCCOC1 (stereo unspecified) | 3.94
52 | CN(CCc1nccs1)C(=O)CC1(O)CCCCC1 | -5.26
53 | N#CCCN(Cc1ccccn1)Cn1cc(Cl)cn1 | 29.9
54 | CCSCCC(C)N(C)C(=O)c1ccc2nncn2c1 (stereo unspecified) | -4.21
55 | Cn1cc(S(=O)(=O)NC(=O)C2(c3cccc(Cl)c3)CC2)cn1 | -10.1
56 | CCN1CCC(CNC(=O)Nc2cnn(CC(N)=O)c2)C1 (stereo unspecified) | -8.69
57 | NC(=O)Cn1cc(NC(=O)NCC2CCN(c3ccccc3)C2)cn1 (stereo unspecified) | -8.01
58 | Cc1nn(CCC#N)c(C)c1CCC(=O)N(C(C)C)C1CC1 | -10.9
59 | CC(C)C(=O)Nc1ccc(Sc2nncn2C)c(Cl)c1 | -16
60 | O=C(O)c1ccc(OC2CCOCC2)cc1 | -3.72
61 | CCOc1cc(C(=O)N2CC=C(c3ccc(O)cc3)CC2)ccn1 | -14.3
62 | Cc1nc(C2CCCN(c3ncc(Br)cn3)C2)no1 (stereo unspecified) | -13.9
63 | Cc1ccc(F)c(OC2CCCN(c3cnn(C)c3)C2=O)c1 (stereo unspecified) | -3.77
64 | Cn1cc(N2CCCC(Oc3ccc(F)cc3Cl)C2=O)cn1 (stereo unspecified) | -4.99
65 | CCOc1cccnc1C(=O)N1CC=C(c2ccc(O)cc2)CC1 | -7.65
66 | Cc1noc(-c2ccnc(N3CCC(N4CCCC4)CC3)c2)n1 | -8.66
67 | Cc1ccc(CC(=O)Nc2ccc(CS(C)(=O)=O)c(F)c2)cc1 | -2.59
68 | CN1CC(Nc2nc3c(cnn3-c3ccccc3)c(=O)[nH]2)CCC1=O (stereo unspecified) | -10.2
69 | CCCOC1CCCN(C(=O)c2[nH]nc(C)c2Br)C1 (stereo unspecified) | -8.95
70 | CSCC(C)(O)CNc1cccc(F)c1C(C)=O (stereo unspecified) | -5.74
71 | CC(C)C(C)(O)CNc1cccc(F)c1C#N (stereo unspecified) | -7.64
72 | COCCCn1ccc(NC(=O)NCCCn2ccnc2)n1 | -18.9
73 | CCCNC(=O)Nc1ccn(CCCOC)n1 | 9.71
74 | CC(C)COC(C)C(=O)N1CCC(C)CC1 (stereo unspecified) | 3.43
75 | COc1ccccc1C(C)(C)NCc1ccco1 | -19.1

Row | Compound | cytotoxicity at 70.5 h [%]
76 | CC(C)(C)CC(=O)Nc1ccc(S(C)(=O)=O)nc1 | -6.59
77 | CC1CCCCN1S(=O)(=O)NCc1cccnc1OC1CCCC1 (stereo unspecified) | -2.43
78 | O=C(Nc1ccc(Cn2cccn2)cc1)N1CCC(CO)CC1 | -5.76
79 | O=C(Nc1ccc(Cn2cccn2)cc1)N1CCC2(CC1)OCCO2 | 22.5
80 | O=C(C[S+]([O-])Cc1cccc(Cl)c1)NC1CCCC1 (stereo unspecified) | -3.67
81 | Cc1noc(OCCOc2cccc(C#N)c2)n1 | -3.56
82 | CCN1CCN(c2ccc(C(=O)NC(C)c3ccncc3)cc2)CC1 (stereo unspecified) | 6.23
83 | O=C(NCCCO)Nc1cccc(C[S+]([O-])c2ccccc2)c1 (stereo unspecified) | -6.37
84 | CS(=O)(=O)NCC1(c2ccccc2Br)CC1 | -5.81
85 | CCN1CCN(c2ccc(C(=O)NC(C)CCOC)cc2)CC1 (stereo unspecified) | 23.2
86 | CN(C)S(=O)(=O)NCC1(c2ccccc2Br)CC1 | 13.4
87 | COc1ccc(-c2ccc(C(=O)NS(C)(=O)=O)c(F)c2)c(F)c1 | -6.13
88 | Cc1nn(C)c(C)c1NC(=O)CNc1cccc(CC(F)(F)F)c1 | -1.15
89 | Cc1ccc(C(F)(F)F)cc1NCC(=O)Nc1c(C)nn(C)c1C | 11.3
90 | Cn1c(=O)oc2ccc(Nc3ncc(C#N)cc3Cl)cc21 | -2.37
91 | NC(=O)CN1CCCC1c1ccccc1Br (stereo unspecified) | 7.42
92 | CNC(=O)CCN1CCCC1c1ccccc1Br (stereo unspecified) | 28
93 | Cn1c(=O)oc2cc(Nc3ncc(C#N)cc3Cl)ccc21 | -4.36
94 | CC1(C)CN(CC(F)(F)F)CCN1CC(N)=O | -3.8
95 | CN(Cc1cncs1)C1CCN(C(=O)OC(C)(C)C)CC1 | -8.3
96 | Cc1cc(N2CCC(NC(=O)CCC3CCCO3)CC2)nc(C)n1 (stereo unspecified) | -5.62
97 | Cc1nc(C)c(CN(C)C2CCN(C(=O)OC(C)(C)C)CC2)s1 | -7.19
98 | CC(C(=O)NCCc1cccs1)N1CCC(n2ccnc2)CC1 (stereo unspecified) | -1.16
99 | COCC(NC(=O)c1ccc(O)nc1)c1ccc(C)o1 (stereo unspecified) | 0.572
100 | CN(CCOCC1CC1)C(=O)Cn1cccc(C(F)(F)F)c1=O | -1.06

Row | Compound | cytotoxicity at 70.5 h [%]
101 | CCCN(CCC)S(=O)(=O)c1cc(NC(C)=O)ccc1C | 4.44
102 | Cc1nn(C)c(C)c1CC(=O)NCc1ccnc(OC2CCCC2)c1 | -5.31
103 | COc1ccnc(N(C)Cc2ccco2)n1 | 10.4
104 | CC(C)(C)OCCN(Cc1cccc(O)c1)C1CCC(O)CC1 (stereo unspecified) | -3.74
105 | CN(C(=O)CN(Cc1cccc(O)c1)C1CCC(O)CC1)C1CC1 (stereo unspecified) | -6.65
106 | CN1CCN(CCCN(C)S(=O)(=O)CC2CCCCC2)CC1 | -3.5
107 | C[S+]([O-])c1ccc(NC(=O)CC2=CCCCC2)cc1 (stereo unspecified) | -3.55
108 | COc1ccc(CN2CCNC(=O)CC2)cc1SC(F)(F)F | 1.64
109 | CCOCC(=O)NCC(C)(O)c1cc(C)oc1C (stereo unspecified) | -0.44
110 | CC(Cn1ccnc1)NC(=O)NCCN1CCc2ccccc2C1 (stereo unspecified) | 0.814
111 | CC(Cn1cccn1)NC(=O)NCCCN1CCCCCC1=O (stereo unspecified) | 0.306
112 | CCOC1CCN(CCc2nc(-c3cccc(Cl)c3)no2)CC1 | 16.1
113 | COCC(O)CN(C)C(=O)c1cccc(-c2csc(C)n2)c1 (stereo unspecified) | 1.21
114 | Cc1cc(C(C)(O)CNC(=O)c2ccc(Br)o2)c(C)o1 (stereo unspecified) | -0.275
115 | CCOc1ccc(CN2C(=O)CC(CC)(CC)C2=O)nc1 | 0.923
116 | Cc1cc(C(C)(O)CNC(=O)CCOCC(C)C)c(C)o1 (stereo unspecified) | 0.738
117 | CCCN(C)S(=O)(=O)NC(=O)c1ccc(CC)o1 | 0.645
118 | CC(Cn1cccn1)NC(=O)NCCN1CCc2ccccc2C1 (stereo unspecified) | 0.199
119 | CCc1cc(CNC(=O)N2Cc3ccccc3N(C)CC2C)[nH]n1 (stereo unspecified) | -0.192
120 | CC(C(=O)NC(C)(C)C)N1CCC(C(=O)Nc2cnccn2)CC1 (stereo unspecified) | -8.75
121 | Cc1cccnc1NC(=O)C1CCN(C(C)C(=O)NC(C)(C)C)CC1 (stereo unspecified) | -10.6
